In brackets after ≈: the same amount, converted by molar mass.
Experiments:
Assay type in all cases: physicochemical
[1] = Stability experiment of solid crystal form A of free base; settings: 60°C; room temperature, 92.5% RH; 50°C, RH = 75%; 5, 10, 20 and 30 days
Description: 2.1 Experimental objective: To investigate the physical and chemical stability for crystal form A of free base under the conditions of a high temperature of 60°C, room temperature and a high humidity of 92.5% RH and 50°C, RH = 75% for 5, 10, 20 and 30 days and provide a basis for the storage of the compound.
2.2 Experimental scheme: About 2 mg of crystal form A of free base was taken and investigated under the conditions of 60°C in an oven, room temperature and a high humidity of RH = 92.5%, and 50°C, RH = 75% for 5, 10, 20 and 30 days. The content was determined by HPLC and an external standard method, and the changes of related substances were calculated by a chromatographic peak area normalization method (see 1.2.3 for the chromatographic conditions).

[2] = Hygroscopicity experiment (crystal forms of salts and crystal form A of free base)
Excerpt: • 2.1 Experimental objective: The hygroscopicity of different crystal forms of salts of the compound was investigated under various relative humidity conditions to provide a basis for screening and storage of the crystal forms of salts of the compound. • 2.2 Experimental scheme: The crystal forms of salts of the compound were placed in saturated water vapor at different relative humidities to reach a dynamic equilibrium between the compound and the water vapor.
3.1 Experimental objective: The hygroscopicity of crystal form A of free base of the compound was investigated under various relative humidity conditions to provide a basis for screening and storage of the crystal forms of the compound.
3.2 Experimental scheme: The crystal form A of free base of the compound was placed in saturated water vapor at different relative humidities to reach a dynamic equilibrium between the compound and the water vapor. The percentage weight gain of the compound due to moisture absorption was calculated after the equilibrium.

[3] = Solubility experiments in different media, crystal form A of free base; settings: thermodynamic from solid
Description: 4.1 Experimental objective: The solubility of the crystal form A of free base in media such as pH1 buffer, artificial simulated gastric fluid (FaSSGF), fasted-state artificial simulated intestinal fluid (FaSSIF), and fed-state artificial simulated intestinal fluid (FeSSIF) was tested to provide a basis for the evaluation of the potential of the crystal form being manufactured as a drug.
4.2 Experimental scheme: About 1.0 mg of crystal form A of free base was weighed into 2 mL glass vials, and pH1 buffer solution, fasted-state artificial simulated intestinal fluid (FaSSIF), fed-state artificial simulated intestinal fluid (FeSSIF), and fasted-state simulated gastric fluid (FaSSGF) (1 mL for each medium) were added to each vial, respectively. The vials were placed on a micromixer for shaking overnight with the temperature set at 37°C. After 24 h, the sample solutions were filtered through 0.45 µm nylon filter membranes, and the filtrates were collected. The concentrations were determined by an external standard method and HPLC.

- stability [1]: excellent stability
- weight gain after moisture absorption ([2]; RH 80%): about 0.1719%
- hygroscopicity ([2]; RH 80%, result in words): weak hygroscopicity
- crystal form transformation (XRPD pattern) ([2]; after 1 cycle of moisture absorption and desorption, 0-95% relative humidity): no crystal form transformation occurred
- solubility at 24 h ([3]; fassgf or other biorelevant, FaSSGF (simulated gastric fluid, fasted), 37°C): 8 µg/mL (≈ 14 µM)
- solubility at 24 h ([3]; pH1 buffer, simulated gastric fluid, pH 1, 37°C): 558 µg/mL (≈ 974 µM)
- solubility at 24 h ([3]; FaSSIF (simulated intestinal fluid, fasted), 37°C): 10 µg/mL (≈ 17.4 µM)
- solubility at 24 h ([3]; FeSSIF (simulated intestinal fluid, fed), 37°C): 209 µg/mL (≈ 365 µM)
Structure (SMILES): CC(C)c1c(F)cc(N2C[C@H](N(C)S(C)(=O)=O)[C@H]2C)c2cnc(Nc3ccnc(-c4cn(C)nc4Cl)n3)cc12 [crystal form A of free base, N-((2R,3S)-1-(3-((2-(3-chloro-1-methyl-1H-pyrazol-4-yl)pyrimidin-4-yl)amino)-6-fluoro-5-isopropylisoquinolin-8-yl)-2-methylazetidin-3-yl)-N-methylmethanesulphonamide]

Source: patent EP4778921A1, “SALT FORM AND CRYSTAL FORM OF NITROGEN-CONTAINING HETEROCYCLIC DERIVATIVE INHIBITOR, AND PREPARATION METHOD THEREFOR AND USE THEREOF” (Shanghai Hansoh Biomedical Co., Ltd., priority 2023, dated 2025)
